The values that follow come from patent US20240376097A1, “BCL-2 Inhibitor” (BeiGene Ltd., priority 2020, published 2024).

Assay [1] addresses Recombinant human Bcl-2 protein (Homo sapiens (Human), UniProt P10415). The assay is described as follows: Bcl-2 TR-FRET Assay. The format is binding. In a few lines:
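0.05 nM Bcl-2 pre-incubated 0.5 h at room temperature with 10-point compound dilutions (top final 1, 0.1, 0.02 or 0.01 uM) in 20 mM potassium phosphate pH 7.5, 50 mM NaCl, 1 mM EDTA, 0.05% Tween-20, 0.01% BSA; FITC-Bak peptide (0.5 nM) and anti-6His Tb cryptate added, 1 h. IC50 from four-parameter logistic fit.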
A general note: In TR-FRET formats the signal depends on donor and acceptor labels being close together.

Assay [2] addresses recombinant human Bcl-2 D103Y protein (Homo sapiens (Human), UniProt P10415, D103Y). The assay is described as follows: Bcl-2-D103Y Biochemical Assay (TR-FRET). Particulars: for pIC50: TR-FRET, FITC labeled Bak peptide; for Ratio of Bcl-2 D103Y/Bcl-2 WT: ratio of IC50. Format: binding. In a few lines:
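Recombinant human Bcl-2 D103Y binding to its ligand measured by TR-FRET (ex 337 nm, em 490/520 nm) with increasing compound concentrations. Percent inhibition from the 490/520 nm ratio; IC50 from four-parameter logistic fit.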

In assay [3] the test system is BCL-2 G101V knock-in cell line H96 (derive from RS4;11). Briefly: Bcl 2-G101V Knock-In RS4;11 Cell Proliferation Assay. Format: cell-based. Particulars: Homo sapiens, RS4;11 Bcl-2 G101V knock-in clone H96, 48 hrs, CellTiter-GLO, read-out: Cellular proliferation assay (IC50, nM) RS4. In a few lines:
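H96, a CRISPR-generated RS4;11 clone carrying BCL2-G101V knock-in (WES/RNA-seq validated), seeded 50,000 per well and exposed 48 h at 37 °C to 10-point dilutions topping at 1 or 10 μM. Viability by CellTiter-Glo luminescence; mean IC50.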
Background: Cellular ATP, detected with luciferase, serves as a proxy for viable cell number.

In assay [4] the test system is recombinant human Bcl-2-G101V protein. Briefly: Bcl-2-G101V TR-FRET Assay. The format is binding. To be noted: ratio of biochemical IC50 Bcl-2 G101V / Bcl-2 WT. In a few lines:
(§1)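 IC50 values derive from four-parameter logistic fitting of percent inhibition data. That inhibition of ligand binding to Bcl-2-G101V is computed from the 490 nm/520 nm TR-FRET ratio under 337 nm excitation, over a rising compound concentration series.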

Assay [5] addresses recombinant human Bcl-2-G101V protein (Homo sapiens (Human), UniProt P10415, G101V). Briefly: Bcl-2-G101V TR-FRET Assay. Format: binding. To be noted: Bcl-2 G101V mutant, TR-FRET; read-out: Biochemical assay (IC50, nM) Bcl-2 G101V. In a few lines: as §1
Assay [6] deals with RS4;11 (BCL-2 dependent acute lymphoblastic leukemia cell line). The assay is described as follows: RS4;11 Cell Proliferation Assay. The format is cell-based. Particulars: Homo sapiens, RS4-11, RS4;11 cells, read-out: Cellular proliferation assay (IC50, nM) RS4. In a few lines:
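RS4;11 cells, 50,000 per well in RPMI-1640 with 10% FBS, treated 48 h at 37 °C with a 10-point dilution series topping at 1 μM. Viability read by CellTiter-Glo ATP luminescence; mean IC50 reported.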

Setting [7] is: Bcl-2 wild type, TR-FRET, read-out: Biochemical assay (IC50, nM) Bcl-2 WT.
Setting [8] is: wild type Bcl-2, unit inferred, read-out: Bcl-2 WT.

pIC50: −log10 of the molar value. Where two headings read alike, the source gives them in different places.

In the case of `COc1cc(CN2CCN(C3CC4(C3)CN(c3ccc(C(=O)NS(=O)(=O)c5ccc(NC[C@H]6CC[C@](C)(O)CC6)c([N+](=O)[O-])c5)c(Oc5cnc6[nH]cc(F)c6c5)c3)C4)[C@H](c3ccccc3C(C)C)C2)ccc1NC(C)C` [Example 360], the IC50 in assay [1] (setting [7]) is 0.23 nM; in assay [1] (setting [8]), 0.23 nM; in assay [3], 0.11 nM; in assay [5], 0.5 nM; in assay [6], 0.05 nM. In addition, in assay [2], the pIC50 is 9.51. The “Ratio of Bcl-2 D103Y/Bcl-2 WT” value in assay [2] is listed as 1.4. For the same molecule, the “Ratio of Bcl-2 G101V/WT” value in assay [4] worked out at 2.2.
For `CC(C)c1ccccc1C1CN(Cc2ccc(N(C)C)cc2)CCN1C1CC2(CCN(c3ccc(C(=O)NS(=O)(=O)c4ccc(NC[C@H]5CC[C@](C)(O)CC5)c([N+](=O)[O-])c4)c(Oc4cnc5[nH]ccc5c4)c3)CC2)C1` (stereo partly drawn) [Example 114, 2-((1H-pyrrolo[2,3-b]pyridin-5-yl)oxy)-4-(2-(4-(4-(dimethylamino)benzyl)-2-(2-isopropylphenyl)piperazin-1-yl)-7-azaspiro[3.5]nonan-7-yl)-N-((4-((((1r,4r)-4-hydroxy-4-methylcyclohexyl)methyl)amino)-3-nitrophenyl)sulfonyl)benzamide], the IC50 is 0.12 nM in assay [1] (setting [7]); 0.12 nM in assay [1] (setting [8]); 3.65 nM in assay [3]; 0.83 nM in assay [5]; 0.6 nM in assay [6]. The pIC50 in assay [2] was 9.40. Moreover, the “Ratio of Bcl-2 D103Y/Bcl-2 WT” value in assay [2] amounted to 3.4. Further, the “Ratio of Bcl-2 G101V/WT” value in assay [4] was determined as 6.9.
As to `COc1cc(CN2CCN(C3CC4(C3)CN(c3ccc(C(=O)NS(=O)(=O)c5ccc(NC[C@H]6CC[C@](C)(O)CC6)c([N+](=O)[O-])c5)c(Oc5cnc6[nH]cc(F)c6c5)c3)C4)[C@H](c3ccccc3C(C)C)C2)ccc1OC1COC1` [Example 351], the IC50 was 0.042 nM in assay [1] (setting [7]); 0.04 nM in assay [1] (setting [8]); 0.13 nM in assay [3]; 0.11 nM in assay [5]; 0.09 nM in assay [6]. The pIC50 in assay [2] was 10.15. In addition, the “Ratio of Bcl-2 D103Y/Bcl-2 WT” value in assay [2] was found to be 1.7. Besides, in assay [4], the “Ratio of Bcl-2 G101V/WT” value turned out to be 2.6.
As to `CC(C)c1ccccc1[C@@H]1CN(Cc2ccc(F)cc2)CCN1C1CC2(CCN(c3ccc(C(=O)NS(=O)(=O)c4ccc(NC[C@H]5CC[C@](C)(O)CC5)c([N+](=O)[O-])c4)c(Oc4cnc5[nH]ccc5c4)c3)CC2)C1` (single isomer, unassigned) [Example 28a, 2-((1H-pyrrolo[2,3-b]pyridin-5-yl)oxy)-4-(2-((R or S)-4-(4-fluorobenzyl)-2-(2-isopropylphenyl)piperazin-1-yl)-7-azaspiro[3.5]nonan-7-yl)-N-((4-((((1r,4r)-4-hydroxy-4-methylcyclohexyl)methyl)amino)-3-nitrophenyl)sulfonyl)benzamide], the IC50 in assay [1] (setting [7]) worked out at 0.098 nM; in assay [1] (setting [8]) it was 0.098 nM; in assay [3], 1.23 nM; in assay [5], 0.33 nM; in assay [6] it was 0.21 nM. Further, the pIC50 in assay [2] is 9.70. Moreover, in assay [2], the “Ratio of Bcl-2 D103Y/Bcl-2 WT” value amounted to 2.1. The “Ratio of Bcl-2 G101V/WT” value in assay [4] is on record as 3.3.
Consider `COc1cc(CN2CCN(C3CC4(CCN(c5ccc(C(=O)NS(=O)(=O)c6ccc(NC[C@H]7CC[C@](C)(O)CC7)c([N+](=O)[O-])c6)c(Oc6cnc7[nH]ccc7c6)c5)CC4)C3)[C@H](c3ccccc3C(C)C)C2)cc2c1OCC2` [Example 239, 2-((1H-pyrrolo[2,3-b]pyridin-5-yl)oxy)-N-((4-((((1r,4r)-4-hydroxy-4-methylcyclohexyl)methyl)amino)-3-nitrophenyl)sulfonyl)-4-(2-((R)-2-(2-isopropylphenyl)-4-((7-methoxy-2,3-dihydrobenzofuran-5-yl)methyl)piperazin-1-yl)-7-azaspiro[3.5]nonan-7-yl)benzamide], for which the IC50 in assay [1] (setting [7]) is 0.076 nM; in assay [1] (setting [8]) it was 0.076 nM; in assay [3], 0.29 nM; in assay [5], 0.2 nM; in assay [6], 0.12 nM. For the same molecule, in assay [2], the pIC50 was 9.92. The “Ratio of Bcl-2 D103Y/Bcl-2 WT” value in assay [2] was found to be 1.5. The “Ratio of Bcl-2 G101V/WT” value in assay [4] came to 2.6.
`COc1ccc(CN2CCN(C3CC4(CCN(c5ccc(C(=O)NS(=O)(=O)c6ccc(NC[C@H]7CC[C@](C)(O)CC7)c([N+](=O)[O-])c6)c(Oc6cnc7[nH]ccc7c6)c5)CC4)C3)C(c3ccccc3C(C)C)C2)cc1C` (stereo partly drawn) [Example 144, 2-((1H-pyrrolo[2,3-b]pyridin-5-yl)oxy)-N-((4-((((1r,4r)-4-hydroxy-4-methylcyclohexyl)methyl)amino)-3-nitrophenyl)sulfonyl)-4-(2-(2-(2-isopropylphenyl)-4-(4-methoxy-3-methylbenzyl)piperazin-1-yl)-7-azaspiro[3.5]nonan-7-yl)benzamide]: the IC50 in assay [1] (setting [7]) was 0.26 nM; in assay [1] (setting [8]) it was 0.26 nM; in assay [3] it was 2.8 nM; in assay [5] it was 1.1 nM; in assay [6], 0.463 nM. In addition, the pIC50 in assay [2] was 9.33. Also, the “Ratio of Bcl-2 D103Y/Bcl-2 WT” value in assay [2] was 1.8. In assay [4], the “Ratio of Bcl-2 G101V/WT” value is 4.1.
For `COc1ccc(CN2CCN(C3CC4(CCN(c5ccc(C(=O)NS(=O)(=O)c6ccc(NC[C@H]7CC[C@](C)(O)CC7)c([N+](=O)[O-])c6)c(Oc6cnc7[nH]ccc7c6)c5)CC4)C3)C(c3ccccc3C(C)C)C2)cc1OC` (stereo partly drawn) [Example 81, 2-((1H-pyrrolo[2,3-b]pyridin-5-yl)oxy)-4-(2-(4-(3,4-dimethoxybenzyl)-2-(2-isopropylphenyl)piperazin-1-yl)-7-azaspiro[3.5]nonan-7-yl)-N-((4-((((1r,4r)-4-hydroxy-4-methylcyclohexyl)methyl)amino)-3-nitrophenyl)sulfonyl)benzamide], the IC50 is 0.038 nM in assay [1] (setting [7]); 0.038 nM in assay [1] (setting [8]); 0.878 nM in assay [3]; 0.2 nM in assay [5]; 0.286 nM in assay [6]. Further, the pIC50 in assay [2] was 10.08. Besides, the “Ratio of Bcl-2 D103Y/Bcl-2 WT” value in assay [2] came to 2.2. The “Ratio of Bcl-2 G101V/WT” value in assay [4] came to 5.2.
With `CC(C)c1ccccc1C1CN(CC23CC(C2)C3)CCN1C1CC2(CCN(c3ccc(C(=O)NS(=O)(=O)c4ccc(NC[C@H]5CC[C@](C)(O)CC5)c([N+](=O)[O-])c4)c(Oc4cnc5[nH]ccc5c4)c3)CC2)C1` (stereo partly drawn) [Example 18, 2-((1H-pyrrolo[2,3-b]pyridin-5-yl)oxy)-4-(2-(4-(bicyclo[1.1.1]pentan-1-ylmethyl)-2-(2-isopropylphenyl)piperazin-1-yl)-7-azaspiro[3.5]nonan-7-yl)-N-((4-((((1r,4r)-4-hydroxy-4-methylcyclohexyl)methyl)amino)-3-nitrophenyl)sulfonyl)benzamide], the IC50 came out at 0.079 nM in assay [1] (setting [7]); 0.079 nM in assay [1] (setting [8]); 4.9 nM in assay [3]; 0.71 nM in assay [5]; 0.61 nM in assay [6]. In assay [2], the negative-log IC50 (pIC50) is 9.37. Further, the “Ratio of Bcl-2 D103Y/Bcl-2 WT” value in assay [2] is on record as 5.4. Further, the “Ratio of Bcl-2 G101V/WT” value in assay [4] is reported as 9.0.
On to `CC(C)c1ccccc1C1CN(C2CCOCC2)CCN1C1CC2(CCN(c3ccc(C(=O)NS(=O)(=O)c4ccc(NC[C@H]5CC[C@](C)(O)CC5)c([N+](=O)[O-])c4)c(Oc4cnc5[nH]ccc5c4)c3)CC2)C1` (stereo partly drawn) [Example 10, 2-((1H-pyrrolo[2,3-b]pyridin-5-yl)oxy)-N-((4-((((1r,4r)-4-hydroxy-4-methylcyclohexyl)methyl)amino)-3-nitrophenyl)sulfonyl)-4-(2-(2-(2-isopropylphenyl)-4-(tetrahydro-2H-pyran-4-yl)piperazin-1-yl)-7-azaspiro[3.5]nonan-7-yl)benzamide], for which the IC50 in assay [1] (setting [7]) is 0.012 nM; in assay [1] (setting [8]), 0.012 nM; in assay [3], 3.16 nM; in assay [5] it was 0.21 nM; in assay [6], 0.42 nM. Besides, the pIC50 in assay [2] is 9.92. For the same molecule, in assay [2], the “Ratio of Bcl-2 D103Y/Bcl-2 WT” value is on record as 10. In assay [4], the “Ratio of Bcl-2 G101V/WT” value came to 17.5.

By pIC50 is commonly meant the IC50 on a negative log10 scale, so that one unit is a factor of ten.
